pIC50: −log10 of the molar value.
Key:
Assay type in all cases: cell-based
Conditions in all cases: 72 h; human CD4+ T cells under TH17-polarizing conditions, 3 days, supernatant ELISA
IL-17F = experiment: Human TH17 Cytokine Inhibition as measured by ELISA (IL-17F)
Method: (§1) Peripheral blood mononuclear cells (PBMCs) were sourced from freshly prepared leukocyte enriched plasma (buffy coat) from healthy donors (New York Blood Center). PBMCs were isolated by density gradient centrifugation using Ficoll-Paque™ PLUS (GE Healthcare). Human CD4+ T cells were seeded into 96-well plates (5×10^4 cells/well) and activated with plate-bound anti-human (h)-CD3 antibody and soluble h-aCD28 (both at 1 ug/ml; eBioscience) and differentiated into TH17 cells with 20 ng/mL h-IL-6, 5 ng/mL h-TGF-β1, 10 ng/mL h-IL-23 (eBioscience) and 10 ng/mL IL-1β (Miltenyi Biotec) in serum-free TexMACS Medium (Miltenyi Biotec) supplemented with 1% Penicillin/Streptomycin (Lonza) for 3 days. CD4+ T cells propagated under TH17-polarizing conditions were cultured in the presence or absence of various concentrations of compounds with a final concentration of 0.1% DMSO. Supernatants were collected and stored at −20° C. until assayed for IL-17A, IL-17F and IL-21 levels by “Ready-Set-Go” ELISA kits (eBioscience) as per manufacturer's instructions. Endpoint absorbance was read at 450 nm using a microplate reader (Perkin Elmer).

IL-21 = experiment: Human TH17 Cytokine Inhibition as measured by ELISA (IL-21)
Method: as §1

IL-17A = experiment: Human TH17 Cytokine Inhibition as measured by ELISA (IL-17A)
Method: as §1

O=C(NCc1ccccc1)N1CCC(CN2CCc3cc(-c4cn[nH]c4)ccc32)CC1 [Example 76, 4-((5-(1H-pyrazol-4-yl)indolin-1-yl)methyl)-N-benzylpiperidine-1-carboxamide]
pIC50 (IL-17F): > 5.00 | pIC50 (IL-21): > 5.00 | pIC50 (IL-17A): > 5.00

CC(O)CC(=O)N1CCC(CN2CCc3cc(-c4cn[nH]c4)ccc32)CC1 (stereo not drawn) [Example 72, 1-(4-((5-(1H-pyrazol-4-yl)indolin-1-yl)methyl)piperidin-1-yl)-3-hydroxybutan-1-one]
pIC50 (IL-17F): < 5.00 | pIC50 (IL-21): < 5.00 | pIC50 (IL-17A): < 5.00

O=C(COc1ccccc1)N1CCC(Cn2ccc3cc(-c4cn[nH]c4)ccc32)CC1 [Example 92, 1-(4-((5-(1H-pyrazol-4-yl)-1H-indol-1-yl)methyl)piperidin-1-yl)-2-phenoxyethanone]
pIC50 (IL-17F): > 5.00 | pIC50 (IL-21): > 5.00 | pIC50 (IL-17A): > 5.00

CC1CC(CN2CCc3cc(-c4cn[nH]c4)ccc32)CN1C(=O)C1CCCCC1 (stereo not drawn) [Example 27, (4-((5-(1H-pyrazol-4-yl)indolin-1-yl)methyl)-2-methylpyrrolidin-1-yl)(cyclohexyl)methanone]
pIC50 (IL-17F): > 5.00 | pIC50 (IL-21): > 5.00 | pIC50 (IL-17A): > 5.00

Cc1cc2cc(-c3cn[nH]c3)ccc2n1CC1CC(C)N(C(=O)CCc2ccccc2)C1 (racemic) [Example 131, rac-1-(2-methyl-4-((2-methyl-5-(1H-pyrazol-4-yl)-1H-indol-1-yl)methyl)pyrrolidin-1-yl)-3-phenylpropan-1-one]
pIC50 (IL-17F): > 5.00 | pIC50 (IL-21): > 5.00 | pIC50 (IL-17A): > 5.00

CC1(C)CC(Cn2ccc3cc(-c4cn[nH]c4)ccc32)CN1C(=O)Cc1ccccc1 (stereo not drawn) [Example 109]
pIC50 (IL-17F): > 5.00 | pIC50 (IL-21): > 5.00 | pIC50 (IL-17A): > 5.00

CC(C)CNC(=O)N1CCC(CN2CCc3cc(-c4cnn(C(=O)NCC(C)C)c4)ccc32)CC1 [Example 74D, N-isobutyl-4-((5-(1-(isobutylcarbamoyl)-1H-pyrazol-4-yl)indolin-1-yl)methyl)piperidine-1-carboxamide]
pIC50 (IL-17F): > 5.00 | pIC50 (IL-21): > 5.00 | pIC50 (IL-17A): > 5.00

CC1(C)CC(Cn2ccc3cc(-c4cn[nH]c4)ccc32)CN1C(=O)c1ccccc1 (stereo not drawn) [Example 108, (4-((5-(1H-pyrazol-4-yl)-1H-indol-1-yl)methyl)-2,2-dimethylpyrrolidin-1-yl)(phenyl)methanone]
pIC50 (IL-17F): > 5.00 | pIC50 (IL-21): > 5.00 | pIC50 (IL-17A): > 5.00

O=C(Cc1ccccc1)N1CCC(CN2CCCc3cc(-c4cn[nH]c4)ccc32)CC1 [Example 102, 1-(4-((6-(1H-pyrazol-4-yl)-3,4-dihydroquinolin-1(2H)-yl)methyl)piperidin-1-yl)-2-phenylethanone]
pIC50 (IL-17F): > 5.00 | pIC50 (IL-21): < 5.00 | pIC50 (IL-17A): > 5.00

O=C(NCc1ccccc1)N1CCC(CN2CCc3cc(-c4cn[nH]c4)ccc32)C1 (stereo not drawn) [Example 65, 3-((5-(1H-pyrazol-4-yl)indolin-1-yl)methyl)-N-benzylpyrrolidine-1-carboxamide]
pIC50 (IL-17F): > 5.00 | pIC50 (IL-21): > 5.00 | pIC50 (IL-17A): > 5.00

O=C(CCc1ccccc1)N1CCC(Cn2ccc3cc(-c4cn[nH]c4)ccc32)CC1 [Example 79, 1-(4-((5-(1H-pyrazol-4-yl)-1H-indol-1-yl)methyl)piperidin-1-yl)-3-phenylpropan-1-one]
pIC50 (IL-17F): > 5.00 | pIC50 (IL-21): > 5.00 | pIC50 (IL-17A): > 5.00

O=C(c1ccccc1)N1CCC(CN2CCc3cc(-c4cn[nH]c4)ccc32)C1 (stereo not drawn) [Example 9, (3-((5-(1H-pyrazol-4-yl)indolin-1-yl)methyl)pyrrolidin-1-yl)(phenyl)methanone]
pIC50 (IL-17F): < 5.00 | pIC50 (IL-21): < 5.00 | pIC50 (IL-17A): > 5.00

CC1CC(CN2CCc3cc(-c4cn[nH]c4)ccc32)CN1C(=O)CC1CCCCC1 (stereo not drawn) [Example 28, 1-(4-((5-(1H-pyrazol-4-yl)indolin-1-yl)methyl)-2-methylpyrrolidin-1-yl)-2-cyclohexylethanone]
pIC50 (IL-17F): > 5.00 | pIC50 (IL-21): > 5.00 | pIC50 (IL-17A): > 5.00

O=C(OCc1ccccc1)N1CCC(CN2CCc3cc(-c4cn[nH]c4)ccc32)C1 (stereo not drawn) [Example 62, benzyl 3-((5-(1H-pyrazol-4-yl)indolin-1-yl)methyl)pyrrolidine-1-carboxylate]
pIC50 (IL-17F): > 5.00 | pIC50 (IL-21): < 5.00 | pIC50 (IL-17A): > 5.00

O=C(c1ccccc1)N1CCC(CN2CCc3cc(-c4cn[nH]c4)ccc32)CC1 [Example 39, (4-((5-(1H-pyrazol-4-yl)indolin-1-yl)methyl)piperidin-1-yl)(phenyl)methanone]
pIC50 (IL-17F): > 5.00 | pIC50 (IL-21): < 5.00 | pIC50 (IL-17A): > 5.00

Cn1cc(-c2ccc3c(ccn3CC3CCN(C(=O)CCc4ccccc4)CC3)c2)cn1 [Example 125]
pIC50 (IL-17F): > 5.00 | pIC50 (IL-21): > 5.00 | pIC50 (IL-17A): > 5.00

O=C(C1CCCCC1)N1CCCC(Cn2ccc3cc(-c4cn[nH]c4)ccc32)CC1 (stereo not drawn) [Example 58, (4-((5-(1H-pyrazol-4-yl)-1H-indol-1-yl)methyl)azepan-1-yl)(cyclohexyl)methanone]
pIC50 (IL-17F): > 5.00 | pIC50 (IL-21): > 5.00 | pIC50 (IL-17A): > 5.00

O=C(CCc1ccccc1)N1CCC(CN2CCc3cc(-c4cn[nH]c4)ccc32)CC1 [Example 41, 1-(4-((5-(1H-pyrazol-4-yl)indolin-1-yl)methyl)piperidin-1-yl)-3-phenylpropan-1-one]
pIC50 (IL-17F): > 5.00 | pIC50 (IL-21): > 5.00 | pIC50 (IL-17A): > 5.00

O=C(CCc1ccccc1)N1CCC(Cn2ccc3cc(-c4cnccn4)ccc32)CC1 [Example 121]
pIC50 (IL-17F): > 5.00 | pIC50 (IL-21): > 5.00 | pIC50 (IL-17A): > 5.00

CC(C)CC(=O)N1CC(CN2CCc3cc(-c4cn[nH]c4)ccc32)CC1C (stereo not drawn) [Example 29, 1-(4-((5-(1H-pyrazol-4-yl)indolin-1-yl)methyl)-2-methylpyrrolidin-1-yl)-3-methylbutan-1-one]
pIC50 (IL-17F): > 5.00 | pIC50 (IL-21): > 5.00 | pIC50 (IL-17A): > 5.00

O=C(Cc1ccccc1)N1CCC(CN2CCc3cc(-c4cn[nH]c4)ccc32)C1 (stereo not drawn) [Example 10, 1-(3-((5-(1H-pyrazol-4-yl)indolin-1-yl)methyl)pyrrolidin-1-yl)-2-phenylethanone]
pIC50 (IL-17F): > 5.00 | pIC50 (IL-21): > 5.00 | pIC50 (IL-17A): > 5.00

O=C(CCCc1ccccc1)N1CCC(Cn2ccc3cc(-c4cn[nH]c4)ccc32)CC1 [Example 89, 1-(4-((5-(1H-pyrazol-4-yl)-1H-indol-1-yl)methyl)piperidin-1-yl)-4-phenylbutan-1-one]
pIC50 (IL-17F): > 5.00 | pIC50 (IL-21): > 5.00 | pIC50 (IL-17A): > 5.00

O=C(c1ccccc1)N1CCCC(CN2CCc3cc(-c4cn[nH]c4)ccc32)CC1 (stereo not drawn) [Example 54, (4-((5-(1H-pyrazol-4-yl)indolin-1-yl)methyl)azepan-1-yl)(phenyl)methanone]
pIC50 (IL-17F): > 5.00 | pIC50 (IL-21): > 5.00 | pIC50 (IL-17A): > 5.00

O=C(C1CCCCC1)N1CCC(CN2CCc3cc(-c4cn[nH]c4)ccc32)C1 (stereo not drawn) [Example 12, (3-((5-(1H-pyrazol-4-yl)indolin-1-yl)methyl)pyrrolidin-1-yl)(cyclohexyl)methanone]
pIC50 (IL-17F): > 5.00 | pIC50 (IL-21): < 5.00 | pIC50 (IL-17A): > 5.00

O=C(CCc1ccccc1)N1CCC(Cn2ccc3cc(-c4cn[nH]c4C(F)(F)F)ccc32)CC1 [Example 117, 3-phenyl-1-(4-((5-(5-(trifluoromethyl)-1H-pyrazol-4-yl)-1H-indol-1-yl)methyl)piperidin-1-yl)propan-1-one]
pIC50 (IL-17F): > 5.00 | pIC50 (IL-21): > 5.00 | pIC50 (IL-17A): > 5.00

O=C(CCc1ccccc1)N1CCC(CN2CCc3cc(-c4cn[nH]c4)ccc32)C1 (stereo not drawn) [Example 11, 1-(3-((5-(1H-pyrazol-4-yl)indolin-1-yl)methyl)pyrrolidin-1-yl)-3-phenylpropan-1-one]
pIC50 (IL-17F): > 5.00 | pIC50 (IL-21): > 5.00 | pIC50 (IL-17A): > 5.00

C[C@H]1C[C@@H](Cn2ccc3cc(-c4cn[nH]c4)ccc32)CN1C(=O)CCc1ccccc1 (relative stereo) [Example 127, cis-1-(4-((5-(1H-pyrazol-4-yl)-1H-indol-1-yl)methyl)-2-methylpyrrolidin-1-yl)-3-phenylpropan-1-one]
pIC50 (IL-17F): > 5.00 | pIC50 (IL-21): > 5.00 | pIC50 (IL-17A): > 5.00

O=C(CCc1ccccc1)N1CCC(Cn2ccc3cc(-c4c[nH]nn4)ccc32)CC1 [Example 112, 1-(4-((5-(1H-1,2,3-triazol-4-yl)-1H-indol-1-yl)methyl)piperidin-1-yl)-3-phenylpropan-1-one]
pIC50 (IL-17F): > 5.00 | pIC50 (IL-21): > 5.00 | pIC50 (IL-17A): > 5.00

O=C(CCCc1ccccc1)N1CCC(CN2CCCc3cc(-c4cn[nH]c4)ccc32)CC1 [Example 103, 1-(4-((6-(1H-pyrazol-4-yl)-3,4-dihydroquinolin-1(2H)-yl)methyl)piperidin-1-yl)-4-phenylbutan-1-one]
pIC50 (IL-17F): > 5.00 | pIC50 (IL-21): < 5.00 | pIC50 (IL-17A): > 5.00

CC(C)CC(=O)N1CCCC(Cn2ccc3cc(-c4cn[nH]c4)ccc32)CC1 (stereo not drawn) [Example 59, 1-(4-((5-(1H-pyrazol-4-yl)-1H-indol-1-yl)methyl)azepan-1-yl)-3-methylbutan-1-one]
pIC50 (IL-17F): > 5.00 | pIC50 (IL-21): < 5.00 | pIC50 (IL-17A): > 5.00

O=C(CCc1ccccn1)N1CCC(Cn2ccc3cc(-c4cn[nH]c4)ccc32)CC1 [Example 91, 1-(4-((5-(1H-pyrazol-4-yl)-1H-indol-1-yl)methyl)piperidin-1-yl)-3-(pyridin-2-yl)propan-1-one]
pIC50 (IL-17F): > 5.00 | pIC50 (IL-21): > 5.00 | pIC50 (IL-17A): > 5.00
